According to patent publication US20240358678A1, “METHODS AND COMPOSITIONS FOR ENHANCING CHEMOTHERAPEUTIC DRUG UPTAKE INTO BRAIN TUMORS” (Brown University, priority 2023, published 2024):

How the values were obtained:
HCMEC/D3 cells [1] = test: Secretome (Luminex cytokine) quantification; assay type: cell-based, human; conditions: BIA 48 hours
Method: Secretome quantification: For cytokine analysis of brain endothelial cells after BIA exposure, HCMEC/D3 cells were plated at a density of 500,000 cells/well in a 6-well plate. Cells were treated with indicated doses of BIA or DMSO for 48 hours. Then, 1 mL of media was collected and processed for cytokine quantification in a Luminex platform (Thermo Fischer Scientific) following the provider's instructions.

HCMEC/D3 cells [2] = test: Visual assessment (brightfield) of HCMEC/D3 cells; assay type: cell-based, human; conditions: BIA 72 hours; elongated phenotype with long filipodia
G9 tumors = test: Platinum uptake by ICP-MS in G9 tumor-bearing mice (Example 2); assay type: in vivo; conditions: BiA 20 mg/kg tail vein, cisplatin 5 mg/kg 24 hours later
Method: Inductively Coupled Plasma-Mass Spectrometry (ICP-MS): For platinum quantitation, ICP-MS was performed in an Agilent 7900 ICP mass spectrometer and controlled using the ICP-MS MassHunter software. Machine calibration was performed using a tuning solution (Agilent), containing 1 ng/mL (1 ppb) of Li, Co, Y, Ce and Ti trace-metals. In each experiment, the desired internal standard was added to each sample and standard solution. Standard curves were prepared with potassium tetrachloroplatinate (II) (Thermo Fisher) by generating dilutions of 0.1, 1, 10, 50, 100 and 1000 parts per billion (ppb). Isotopes selected for platinum detection were Pt^195. Performance reports were registered daily for calibration and accuracy records.
For the assessment of the effects of indirubin on intratumoral accumulation of platinum, G9 tumors were implanted intracranially according to the protocols described above. Cisplatin (5 mg/kg) was injected via the tail vein 24 hours post-BIA injection (20 mg/kg vial tail vein), and accumulation measured after a further 5 hours.

HCMEC/D3 cells [3] = test: Cell cycle analysis via flow cytometry of HCMEC/D3; assay type: cell-based, human; conditions: BIA 0.5 μM or 1 μM
Method: Flow cytometry for cell cycle, DNA damage and apoptosis assays: For cell cycle analysis, 100,000 HCMEC/D3 cells were plated in 6-well plates and treated with indicated concentrations of BIA or control for 48 hours. Then, cells were washed twice with PBS and fixed/permeabilized with 5 mL of cold 70% ethanol added dropped-wise while vortexing at low speed. Cells were stored for 1 day at −20 degrees Celsius, washed three times with PBS and treated with 20 μg/mL RNAse I (Thermo Fisher Scientific) and stained with anti-Ki-67 FITC-conjugated (1:1000) (BD Biosystems) and 1.5 μM propidium iodide (Thermo Fisher Scientific). Amer 30 minutes of incubation in the dark, cells were analyzed using a CytoFLEX system (Beckman Coulter). 50,000 events were counted, and data was analyzed using the CytoFLEX system software (Beckman Coulter).

HCMEC/D3 cells [4] = test: Western blot of HCMEC/D3 cells; assay type: cell-based, human
Method: Western blot: HCMEC/D3 and GBM cell lysates were collected in RIPA Buffer (Thermo Fisher Scientific) supplemented with 1× protease/phosphatase inhibitor cocktail (Cell Signaling). Lysate collection from murine tumor tissue samples (˜30 mg) was performed under homogenization using 23G and 26G needles. Total protein concentration was measured using Pierce 660 nm Protein Assay Reagent (Thermo Fisher Scientific) at 660 nm absorbance in Molecular Devices SpectraMax M2 plate reader. Samples were incubated in 1× Laemmli sample buffer (BioRad) at 95 degrees Celsius for 5 minutes before loading onto 10% Mini-PROTEAN TGX precast protein gel (BioRad). PageRuler Plus Pre-stained Protein Ladder (Thermo Fisher Scientific) was used as ladder. Appropriate secondary antibodies, Goat anti-mouse-HRP (Sigma) or Goat anti-rabbit-HRP (Sigma) in 5% milk in 1×TBST with 1:5000 dilution.

[5] = test system: G9-PCDH, G34-PCDH and GL-261 murine GBM tumors; test: ICP-MS platinum quantification in GBM tumor-bearing mice after BIA and cisplatin; assay type: in vivo
Method: (§1) In vivo studies: For intra-cranial tumor implantation, GBM neuro-spheres were grown to 70% confluency before dissociated into single cell on the day of surgery. 50,000 cells were resuspended in 3 μl of sterile PBS and injected intracranially into the striatum (2 mm right hemisphere, 1 mm frontal, 3 mm depth from bregma) of mice under anesthesia and stereo-tactically fixed. Tumors were left to grow for approximately 2-3 weeks, depending the cell line. Animals were randomized to treatment groups. BIA injections consisted of 20 mg/kg (i.p.), except if indicated otherwise. PPRX-1701 was administered at 20 mg/kg (i.v.) via lateral tail-vein. Cisplatin injections were performed at 5 mg/kg (maximum tolerated dose, i.p.). All GBM tumor murine studies involved continuous condition and weight assessments, with endpoint considered when 20% of weight loss and/or moderate-to-high grimace scale and neurological symptoms were observed.
(§2) ICP-MS for platinum quantification: Mice treated with cisplatin after BIA administration were euthanized, intra-cardially perfused with PBS and tissue harvested to be stored at −80 degrees Celsius. Tissue was processed and platinum (Pt195) was quantified using an Agilent 7900 ICP-MS, as previously described.^42

[6] = test system: G9-PCDH, G34-PCDH and GL-261 GBM tumors; test: as above; assay type: in vivo; conditions: G9-PCDH xenograft, increasing BIA doses
Method: as §1, §2

HBMEC cells = test: Trans-endothelial electrical resistance (TEER) of HBMEC monolayers; assay type: cell-based, human
Method: Trans-endothelial electrical resistance: HCMEC/D3 or HBMEC cells were plated in 8W10E+ PET 8-well arrays (Applied Biophysics) at a density of 100,000 cells/well in 500 μl. These arrays were placed in a pre-stabilized ECIS Z-Theta instrument (Applied Biophysics). Using the ECIS Z-Theta software (Applied Biophysics), measurements were set to 4000 and 64000 Hz every 30 minutes. […] Cells would then be treated with BIA and left to grow up to 5 days, with frequent drug-containing media re-addition for maintenance of the culture. Resistance (W) and capacitance (nF) were recorded and plotted.

In the case of `CC(=O)ON=C1C(=C2C(=O)Nc3cc(Br)ccc32)Nc2ccccc21` [BIA, 6-bromoindirubin acetoxime], the CCL2 secretion (HCMEC/D3 cells [1]) is reported as “significant downregulation”, the “cytokine secretion profile (TNF-α, IFNg, IL-17A, IL6, IL-1b, prolactin, CCL8, CCL4)” value (HCMEC/D3 cells [1]) is reported as “pro-inflammatory secretion profile” and the “signs of apoptosis or necrosis by visual assessment” value (HCMEC/D3 cells [2]) is reported as “did not show signs of apoptosis or necrosis”. The “in vivo uptake of platinum in healthy mouse brain” value (G9 tumors) was “not in healthy mouse brain”, the “in vivo uptake of platinum in tumor tissue” value (G9 tumors; measured after 5 hours) was “significantly increases the in vivo uptake of platinum” and the cell cycle states (HCMEC/D3 cells [3]) was “slight decreased G1 and M states”. For the same compound, the “time of maximum reduction of CDH5 protein levels post-BIA addition” value (HCMEC/D3 cells [4]; 1 μM BIA, remained for 2 days) was 12 h, the “protein levels of CAV1 or MFSD2A” value (HCMEC/D3 cells [4]; BIA 1 μM, 48 hours) was “did not show any changes of protein levels” and the “platinum uptake in contralateral healthy brain regions” value ([5]; cisplatin 5 mg/kg 24 hours after BIA) was “no significant difference of uptake”. The “cisplatin (platinum) accumulation in tumor after BIA pre-treatment” value ([5]; cisplatin 5 mg/kg 24 hours after BIA, 5 hours circulation) was “significant cisplatin intra-tumoral accumulation”, the “platinum accumulation in peripheral tissues such as heart or liver” value ([5]; cisplatin 24 hours after BIA) was “no difference in platinum accumulation” and the “BIA dose showing significant cisplatin accumulation in the tumor” value [6] was “above 10 mg/kg”. For the same compound, the “barrier establishment (TEER), BIA added 24 hours after plating” value (HBMEC cells) was “prevented barrier establishment”.
